# Reference: publication PMC4721142, “Randomized controlled studies on the efficacy of antiarthritic agents in inhibiting cartilage degeneration and pain associated with progression of osteoarthritis in the rat” (Arthritis Research & Therapy, 2016)
# Values joined by “and” are separate entries in the source; they are usually repeats but may differ in a detail not shown here. Equal values may be shown once.
# Experiments:
# [1] = system: MMT/MCLT rat model of OA; experiment: MMT/MCLT trial 1 weight bearing (daily morphine 10 mg/kg, tacrolimus 0.3 or 0.6 mg/kg, fluocinolone 5 or 10 μg/kg, clonidine 100 μg/kg, alendronate 10 μg/kg i.p.; curcumin, withaferin 50 mg/kg p.o.); assay type: in vivo; conditions: low or only dose
# Experimental: Weight bearing (WB; incapacitance) was measured five times per day, once per week, using a Linton incapacitance meter (Stoelting Co., Wood Dale, IL, USA). Rats were acclimated to the meter before study initiation, and, similarly, immediately before WB, the animals were placed in the meter and allowed to acclimate for 2–5 minutes. Each hind paw was placed on a separate force plate so that the force exerted by each side could be averaged over a 5-second interval, and the mean of three readings was taken for each data point. Right paw force was compared with that on the left side for each group to confirm that animals were displaying incapacitance and/or pain behavior. Differences in force (left minus right) and right paw force as a percentage of the total force exerted by both paws were determined and compared between groups.
# Following isoflurane anesthesia, the medial collateral ligament was transected just below its attachment to the meniscus in the right knee. The meniscus was cut at its narrowest point away from the ossicles so as not to damage the tibial surface and to ensure that the anterior and posterior meniscus halves were freely movable. […] In trial 2, drugs were administered IA weekly beginning 1 week following surgery. Three weeks postsurgery, animals were humanely killed and their right knees were collected for histopathology. All studies were conducted in accordance with the International Association for the Study of Pain Guidelines and were approved by the Bolder BioPATH IACUC (Boulder, CO, USA) in compliance with regulations before study initiation (IACUC protocol BBP03-006). Those running the studies were blinded to the treatments. See Additional file 1 for further details.
# Isoflurane and the right knee area prepared for surgery. A skin incision was made over the medial aspect of the knee and the medial collateral ligament was exposed by blunt dissection and then transected. The medial meniscus was cut through the full thickness to simulate a complete tear and the skin was then closed with suture.
# All pharmaceutical agents were prepared and stored as recommended by the supplier. Daily drug preparations were made fresh from stock solutions. […]
# In Trial 2 drugs were […]
# administered IA weekly beginning one week following surgery. […]
# were delivered by gavage and were prepared in 0.3% Methyl Cellulose.
# WB was measured five times a day, once a week, using a Linton incapacitance meter (Stoelting Co.) to assess pain behavior. Rats were acclimated to the incapacitance meter prior to study initiation.
# Similarly, immediately prior to WB animals were placed in the incapacitance meter and allowed to acclimate for 2-5 minutes. Each hind paw was placed on a separate force plate so that the force exerted by each side could be averaged over a 5 second interval and the mean of three readings taken for each data point. Right paw force was compared to left for each group to confirm that animals were displaying incapacitance / pain behavior. Difference in force (left minus right) and right paw force as a percentage of the total force exerted by both paws were determined and compared between groups. Three weeks after surgery, animals were humanely euthanized and right knees collected for histopathology evaluation.
# Figure 2. MMT/MCLT Trial Timeline […]
# MMT/MCLT Dosing (once/day)
# The study design and animal usage was approved by Bolder BioPATH’s Institutional Animal Care and Use Committee (IACUC) for compliance with regulations prior to study initiation (IACUC […]
# Labs. Animals were identified by a distinct mark at the base of the tail delineating group and animal number. After randomization, all cages were labeled with protocol number, group numbers, and animal numbers with appropriate color-coding (see protocol).
# [2] = system: MMT/MCLT rat model of OA; experiment: MMT/MCLT trial 1 histopathology (same doses); assay type: in vivo; set-up: key to Tibial cartilage degeneration score, 3-zone total: sum of three tibial zone scores (each on 5-point scale); key to Total joint score w/o femur / Total joint score / Total joint score without femur: sum: cartilage degeneration scores + mean osteophyte score; conditions: for % decrease, bone score / % decrease, femoral cartilage degeneration score / % decrease, osteophyte measure / % decrease, osteophyte score / % decrease, significant degeneration width / % decrease, tibial score 3-zone total / % decrease, tibial score zone 1 / % decrease, tibial score zone 2 / % decrease, tibial score zone 3 / % decrease, total degeneration width / % decrease, total joint score / % decrease, total joint score w/o femur: vs saline group
# Text: For MMT/MCLT rat knee joints, sections were cut in 200-μm steps; stained with toluidine blue (also with a right and left half per section); and similarly analyzed for cartilage degeneration, proteoglycan loss, collagen damage, and osteophyte formation. Results were averaged across the three sections for an overall semiquantitative score. Regional differences across the tibial plateau were taken into consideration by dividing each section into three zones delineated using an ocular micrometer (outside, middle, and inside). Scores were based on the percentage of area affected within the zone.
# Cartilage degeneration in the tibia was scored on a 5-point scale as detailed in the Methods section of Additional file 1. The total extent of degeneration of the tibial plateau was measured (in micrometers) and included an analysis of cell loss, proteoglycan loss, and collagen damage. Significant cartilage degeneration reflecting any degeneration extending through more than 50 % of the cartilage thickness was also measured. Collagen damage across the medial tibial plateau (the most severely affected section of the two halves) was also quantified.
# Osteophytes and femoral cartilage degeneration were analyzed as detailed in Additional file 1. Scoring of the osteophytes and categorization into small, medium, and large was performed using an ocular micrometer. The actual osteophyte measurement (tidemark to farthest distance point extending toward the synovium) was also recorded. The femoral cartilage degeneration score and the three-zone sum of the tibial cartilage degeneration scores (mean of three levels) were summed to create a total cartilage degeneration score. The mean osteophyte score for each joint was added to this value to create a total joint score. […]
# Histopathology MMT/MCLT Model
# [3] = individual animals, fluocinolone 10 μg/kg, 21 days
# [4] = mean, tacrolimus 0.6 mg/kg, fluocinolone 10 μg/kg
# [5] = mean, tacrolimus 0.6 mg/kg, fluocinolone 10 μg/kg, listed as fluocinolone
# [6] = vs group 1, fluocinolone 10 μg/kg
# [7] = tacrolimus 0.6 mg/kg, fluocinolone 10 μg/kg
compound,measurement,setting,value
"CC1(C)O[C@@H]2C[C@H]3[C@@H]4C[C@H](F)C5=CC(=O)C=C[C@]5(C)[C@@]4(F)[C@@H](O)C[C@]3(C)[C@]2(C(=O)CO)O1 [Fluocinolone, Fluocinolone Acetonide]","Weight bearing, hours with significant effect",[1]; day 7,5 h
same,"Weight bearing, hours with significant effect",[1]; day 14,"1,3 h"
same,"Weight bearing, hours with significant effect",[1]; day 21,1 h
same,Bone score,[2]; [3],3.00 and 2.00 and 4.00 and 1.00
same,Femoral cartilage degeneration score,[2]; [3],1.00 and 2.00 and 3.00 and 2.33 and 1.33
same,"Tibial cartilage degeneration score, 3-zone total",[2]; [3],4.67 and 5.00 and 6.33 and 7.00 and 7.67 and 5.33 and 6.00
same,"Tibial cartilage degeneration score, zone 1",[2]; [3],3.00 and 4.33 and 3.33 and 4.67 and 4.00
same,"Tibial cartilage degeneration score, zone 2",[2]; [3],1.67 and 2.00 and 1.33 and 2.33 and 2.67
same,"Tibial cartilage degeneration score, zone 3",[2]; [3],0.00 and 0.33
same,"Tibial cartilage degeneration width, significant",[2]; [3],466.67 μm and 433.33 μm and 633.33 μm and 766.67 μm and 800.00 μm and 566.67 μm and 666.67 μm
same,"Tibial cartilage degeneration width, total",[2]; [3],1400.00 μm and 1066.67 μm and 1133.33 μm and 1000.00 μm and 1600.00 μm and 1266.67 μm and 1100.00 μm
same,Tibial osteophyte measure,[2]; [3],333.33 μm and 413.33 μm and 280.00 μm and 426.67 μm and 586.67 μm and 400.00 μm and 380.00 μm
same,Tibial osteophyte score,[2]; [3],2.00 and 2.33 and 3.00 and 1.33 and 4.67 and 2.67
same,Total joint score,[2]; [3],7.67 and 8.33 and 11.33 and 9.00 and 12.33 and 15.33 and 9.67 and 10.67
same,Total joint score without femur,[2]; [3],6.67 and 7.33 and 9.33 and 6.00 and 10.00 and 12.33 and 8.33 and 8.67
same,Bone score,"[2]; mean, low or only dose",2.38
same,Femoral cartilage degeneration score,"[2]; mean, low or only dose",1.33 and 1.33 ± 0.14
same,"Tibial cartilage degeneration score, 3-zone total","[2]; mean, low or only dose",6.08
same,"Tibial cartilage degeneration score, zone 1","[2]; mean, low or only dose",4.17
same,"Tibial cartilage degeneration score, zone 2","[2]; mean, low or only dose",1.88
same,"Tibial cartilage degeneration score, zone 3","[2]; mean, low or only dose",0.04
same,"Tibial cartilage degeneration width, significant","[2]; mean, low or only dose",608.33 µm
same,"Tibial cartilage degeneration width, total","[2]; mean, low or only dose",1154.17 µm
same,Tibial osteophyte measure,"[2]; mean, low or only dose",455.00 µm
same,Tibial osteophyte score,"[2]; mean, low or only dose",3.33
same,Total joint score,"[2]; mean, low or only dose",10.75 and 10.75 ± 0.61
same,Total joint score w/o femur,"[2]; mean, low or only dose",9.42
same,Bone score,[2]; [4],2.63
same,Femoral cartilage degeneration score,[2]; [4],1.96 ± 0.77
same,"Tibial cartilage degeneration score, 3-zone total",[2]; [4],5.83
same,"Tibial cartilage degeneration score, zone 1",[2]; [4],3.88
same,"Tibial cartilage degeneration score, zone 2",[2]; [4],1.92
same,"Tibial cartilage degeneration score, zone 3",[2]; [4],0.04
same,"Tibial cartilage degeneration width, significant",[2]; [4],595.83 μm
same,"Tibial cartilage degeneration width, total",[2]; [4],1212.50 μm
same,Tibial osteophyte measure,[2]; [4],394.17 μm
same,Tibial osteophyte score,[2]; [4],2.75
same,Total joint score,[2]; [4],10.54 ± 0.88
same,Total joint score w/o femur,[2]; [4],8.58
same,Femoral cartilage degeneration score,[2]; [5],1.96
same,Total joint score,[2]; [5],10.54
same,"% increase, area of viable cartilage matrix","[2]; tacrolimus 0.3 mg/kg, fluocinolone 5 ug/kg",17%
same,"% increase, area of viable cartilage matrix","[2]; tacrolimus 0.6 mg/kg, fluocinolone 10 ug/kg",20%
same,"Percentage, bone score",[2]; [6],0.19
same,"Percentage, femoral cartilage degeneration score",[2]; [6],−0.07
same,"Percentage, osteophyte measure",[2]; [6],0.23
same,"Percentage, osteophyte score",[2]; [6],0.30
same,"Percentage, significant degeneration width",[2]; [6],0.18
same,"Percentage, tibial score zone 1",[2]; [6],0.10
same,"Percentage, tibial score zone 2",[2]; [6],0.13
same,"Percentage, tibial score zone 3",[2]; [6],0.00
same,"Percentage, total degeneration width",[2]; [6],0.08
same,"Percentage, total joint score",[2]; [6],0.14
same,"Percentage, total joint score without femur",[2]; [6],0.18
same,"% decrease, bone score",[2]; low or only dose,27%
same,"% decrease, femoral cartilage degeneration score",[2]; low or only dose,27%
same,"% decrease, osteophyte measure",[2]; low or only dose,11%
same,"% decrease, osteophyte score",[2]; low or only dose,15%
same,"% decrease, significant degeneration width",[2]; low or only dose,16%
same,"% decrease, tibial score 3-zone total",[2]; low or only dose,7%
same,"% decrease, tibial score zone 1",[2]; low or only dose,3%
same,"% decrease, tibial score zone 2",[2]; low or only dose,15%
same,"% decrease, tibial score zone 3",[2]; low or only dose,0%
same,"% decrease, total degeneration width",[2]; low or only dose,12%
same,"% decrease, total joint score",[2]; low or only dose,13%
same,"% decrease, total joint score w/o femur",[2]; low or only dose,10%
same,"% decrease, bone score",[2]; [7],19%
same,"% decrease, femoral cartilage degeneration score",[2]; [7],-7%
same,"% decrease, osteophyte measure",[2]; [7],23%
same,"% decrease, osteophyte score",[2]; [7],30%
same,"% decrease, significant degeneration width",[2]; [7],18%
same,"% decrease, tibial score 3-zone total",[2]; [7],11%
same,"% decrease, tibial score zone 1",[2]; [7],10%
same,"% decrease, tibial score zone 2",[2]; [7],13%
same,"% decrease, tibial score zone 3",[2]; [7],0%
same,"% decrease, total degeneration width",[2]; [7],8%
same,"% decrease, total joint score",[2]; [7],14%
same,"% decrease, total joint score w/o femur",[2]; [7],18%
